The values that follow come from patent US20100317533A1, “BIOMARKERS OF CANCER METASTASIS” (BRITISH COLUMBIA CANCER AGENCY BRANCH, priority 2009, published 2010).

Each structure is given as a SMILES string.

Holding throughout (assay type): cell-based, mouse
Assay [1] has as its system 66cl4 cells. The experiment in a line: Measurement of extracellular pH of culture medium, 66cl4 cells. The conditions noted are these: hypoxia 72 hours, CAI 17 600 μM. The procedure:
(§1) The acquisition, generation and culture of the mouse breast cancer cell lines 4T1, 66cl4 and 67NR have been described previously^11. These 3 cell lines stably express a luciferase reporter^11 and were cultured routinely in DMEM supplemented with 10% FBS, non-essential amino acids and […] puromycin. Incubation in normoxia was carried out in a humidified atmosphere of 5% CO2 and 95% air at 37° C. Cells were maintained in conditions of hypoxia (1% O2 and 5% CO2 balanced with N2) at 37° C. in a humidified incubator positioned in a sealed anaerobic workstation.
Cells were plated in 60 mm dishes and allowed to recover for 24 hours. Growth medium was then replaced with a standard 3 ml volume of fresh media and cells were incubated in normoxia or hypoxia for 72 hours. Spent media was collected in 15 ml conical tubes, maintained at 37° C. and pH was measured immediately using a digital pH meter. Triplicate plates were run for each condition and results were averaged. Cell layers were kept on ice and were harvested for qRT-PCR and Western blot analysis.
CAI 17 was a generous gift from Dr. Claudiu Supuran (University of Florence, Florence, Italy). The chemical properties of this sulfonamide have been previously described^20,34. […]
(§2) Data are expressed as the mean change in extracellular pH±s.e.m. of triplicate samples and are representative of 3 independent experiments. […]

Assay [2] concerns 4T1 cells. Nature of the assay: Measurement of extracellular pH of culture medium, 4T1 cells. Conditions: hypoxia 72 hours, CAI 17 400 μM. How it is done:
as §1
Cells were plated in 60 mm dishes and allowed to recover for 24 hours. Growth medium was then replaced with a standard 3 ml volume of fresh media and cells were incubated in normoxia or hypoxia for 72 hours. Spent media was collected in 15 ml conical tubes, maintained at 37° C. and pH was measured immediately using a digital pH meter. Triplicate plates were run for each condition and results were averaged. Cell layers were kept on ice and were harvested for qRT-PCR and Western blot analysis. […]
as §2
Data are expressed as the mean change in extracellular pH±s.e.m. and are representative of 2 independent experiments (each n=3).

Assay [3] concerns 4T1 cells. Nature of the assay: Binding of FITC-tagged CAIX inhibitor to cells (epifluorescence), 4T1 cells. Conditions: hypoxia 72 hours, 10 μM. How it is done: (§3) CAI 17 was a generous gift from Dr. Claudiu Supuran (University of Florence, Florence, Italy). The chemical properties of this sulfonamide have been previously described^20,34. The sulfonamide was dissolved in 100% DMSO, stored at −80° C. and diluted into culture medium just prior to application. Subconfluent cell monolayers were incubated with CAI 17 for 72 hours in normoxia or hypoxia, washed 3× in PBS and imaged using a Ziess Axioplan epifluorescence microscope.
(§4) FIG. 4, part d, depicts localization of the fluorescent CAIX inhibitor, CAI 17, on cells. To determine whether the acidification was CAIX-dependent, cells were treated with a highly specific CAIX inhibitor (compound 17 or “CAI 17”)^20. Cells were incubated in normoxia or hypoxia for 72 hours in the presence of CAI 17 at a concentration of 10 μM. Shown are representative images of the FITC-tagged inhibitor bound to the cells under the indicated experimental conditions. Data were similar in 3 independent experiments.

The test system of assay [4] is 67NR cells. The experiment in a line: Binding of FITC-tagged CAIX inhibitor to cells (epifluorescence), 67NR cells. The conditions noted are these: hypoxia 72 hours, 10 μM. The procedure:
as §3, §4

Assay [5] has as its system 66cl4 cells. The experiment in a line: Binding of FITC-tagged CAIX inhibitor to cells (epifluorescence), 66cl4 cells. The conditions noted are these: hypoxia 72 hours, 10 μM. How it is done: as §3, §4

On to `NS(=O)(=O)c1ccc(CCNC(=S)Nc2ccc(-c3c4ccc(=O)cc-4oc4cc(O)ccc34)c(C(=O)O)c2)cc1` [CAI 17], for which the “acidification of the extracellular medium under hypoxia” value in assay [1] and in assay [2] was “reversed acidification of the extracellular medium” each time. Moreover, the “binding of FITC-tagged inhibitor to cell surfaces” value in assay [3] is reported as “binds to the cell surfaces”; in assay [4] it was “not”; in assay [5] it was “binds to the cell surfaces”.
